The subject of series [1] is guinea-pig urinary bladder muscle. The experiment in a line: tissue or blood.
A further series deals with guinea pig taenia coli. As to the kind of experiment: tissue or blood. The note with it: Cavia porcellus.
The test system of another series is guinea pig ileum. The experiment in a line: tissue or blood.
Another series concerns urinary bladder. The note with it: literature, background; cited from earlier work.
For series [2] the following is noted: M. Blau, U. Retzke, Zbl. Gynakol. 100 (1984); cited from earlier work.

Converted amounts (≈) assume the structure as drawn. “Also recorded” adds a separate entry of the source. Read-outs that look alike come from different tables or passages of the source.

Regarding `CCCOC(C(=O)OC1CCN(C)CC1)(c1ccccc1)c1ccccc1` [propiverine, 1-methyl-4-piperidyl α,α-diphenyl-α-(n-propoxy)acetate], in series [1], the “myotropic/spasmolytic activity compared with papaverine (in words)” value was “reaches the potency of papaverine”. For the same molecule, the EC50 in series [1] (Cavia porcellus, read-out: ED50 (myotropic/spasmolytic activity)) worked out at 53 µg/mL (≈ 144 µM); with guinea pig taenia coli (read-out: ED50 (myotropic/spasmolytic activity)), 2 µg/mL (≈ 5.44 µM); in the series with guinea pig taenia coli (read-out: Myotropic/spasmolytic activity, Taenia coli, Barium 200 μg/ml (EC 50)), 12 µg/mL (≈ 32.7 µM); with guinea pig ileum (Cavia porcellus, read-out: Neurotropic/spasmolytic activity, Ileum, Carbachol 50 ng/ml) it was 0.059 µg/mL (≈ 0.161 µM). Moreover, the “predominating effect, neurotropic/spasmolytic versus myotropic/spasmolytic (in words)” value in the series with guinea pig ileum was “the undesired myotropic/spasmolytic effect predominates”. Besides, in the series on urinary bladder, the “side effects (in words)” value was “not amenable to general use because of certain side effects”. Further, in the series with urinary bladder, the “therapeutic utility for the tone of the urinary bladder (in words)” value is “has shown therapeutic utility; also recorded: insufficiently effective in some patients”. Moreover, the “effect on blood pressure (in words)” value in series [2] was “lowering of the blood pressure”.
